Measured values published in ChEMBL document CHEMBL1201862, “PubChem BioAssay data set” (2004).
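Dose response: 5 concentrations. Exposure: 48 h. Format: 96-well plates. Endpoint: linear interpolation; highest concentration if not reached. Here, GI50 denotes the concentration required for 50% inhibition of growth.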 Calls of active or inactive are those of the source. No stated cut-off is given here; in the data, active = GI50 up to about 1.1 µM and inactive = higher. Non-standard residues stand in square brackets, D forms with d. Residues, ends and D or L forms follow the SMILES beside them. ξ: configuration not given here. Pentanoyl(2-O,4-OH,5-Cl) = O=C(O)C(O)CC(O)CCl; Ile(3ξ) = CCC(C)[C@H](N)C(=O)O; NMeV = CN[C@H](C(=O)O)C(C)C; NMeA = CN[C@@H](C)C(=O)O; βAla = NCCC(=O)O

Legend:
Assay in all cases: NCI tumour cell line growth inhibition, 48 h
[1] = test system: A498
[2] = test system: CCRF-CEM
[3] = test system: HCC 2998
[4] = test system: HCT-15
[5] = test system: HOP-92
[6] = test system: IGROV-1
[7] = test system: LOX IMVI
[8] = test system: NCI-H226
[9] = test system: NCI-H23
[10] = test system: OVCAR-3
[11] = test system: RXF 393
[12] = test system: SF-539
[13] = test system: SK-MEL-28
[14] = test system: SK-MEL-2
[15] = test system: SK-MEL-5
[16] = test system: SK-OV-3
[17] = test system: SNB-75
[18] = test system: SW-620
[19] = test system: U-251
[20] = test system: UACC-257

SMILES | GI50 [1] | GI50 [2] | GI50 [3] | GI50 [4] [µM] | GI50 [5] | GI50 [6] | GI50 [7] | GI50 [8] | GI50 [9] | GI50 [10] | GI50 [11] | GI50 [12] | GI50 [13] | GI50 [14] | GI50 [15] | GI50 [16] | GI50 [17] | GI50 [18] | GI50 [19] | GI50 [20]
Nc1ccccc1Sc1ccc(Cl)cc1 | 54.2 µM (inactive) | 17.9 µM (inactive) | 28.1 µM (inactive) | 28.1 | 20 µM (inactive) | 52 µM (inactive) | 28.6 µM (inactive) | 4.86 µM (inactive) | 26.2 µM (inactive) | 25.6 µM (inactive) | 13.5 µM (inactive) | 35.4 µM (inactive) | 28.9 µM (inactive) | 27.9 µM (inactive) | 17.8 µM (inactive) | 40.4 µM (inactive) | 18.1 µM (inactive) | 37.1 µM (inactive) | 16.2 µM (inactive) | 23.2 µM (inactive)
CCC(C)[C@@H]1NC(=O)[C@@H]2CCCN2C(=O)C(CC(O)CCl)OC(=O)CCNC(=O)[C@H](C)N(C)C(=O)[C@H](C(C)C)N(C)C1=O (stereo partly specified) (cyclo([Ile(3ξ)][NMeV][NMeA][βAla][Pentanoyl(2-O,4-OH,5-Cl)]P)) | > 29.1 µM (inactive) | 0.483 µM (active) |  | > 80.2 | 1.09 µM (active) | > 100 µM (inactive) |  | > 100 µM (inactive) | > 100 µM (inactive) | 17.9 µM (inactive) | > 100 µM (inactive) | > 100 µM (inactive) |  | 0.347 µM (active) | 0.248 µM (active) | > 100 µM (inactive) | 2.92 µM (inactive) | > 58.9 µM (inactive) | > 29 µM (inactive) | 2.46 µM (inactive)
CN(C)CCCNC(=O)N/N=C/c1ccccc1 | > 100 µM (inactive) | > 100 µM (inactive) |  | > 100 |  | > 100 µM (inactive) | > 100 µM (inactive) | > 100 µM (inactive) |  | > 100 µM (inactive) | > 100 µM (inactive) | > 100 µM (inactive) | > 100 µM (inactive) | > 100 µM (inactive) | > 100 µM (inactive) | > 100 µM (inactive) | > 100 µM (inactive) | > 100 µM (inactive) | > 100 µM (inactive) | > 100 µM (inactive)
CN(C)c1ccc(C2CC(=O)CC(c3ccc(N(C)C)cc3)C23C(=O)NC(=O)NC3=O)cc1 (stereo unspecified) |  | > 25 µM (inactive) | > 25 µM (inactive) | > 25 | 5.18 µM (inactive) | > 25 µM (inactive) | > 25 µM (inactive) | > 25 µM (inactive) | > 25 µM (inactive) | > 25 µM (inactive) | 15.8 µM (inactive) | 14.9 µM (inactive) | > 25 µM (inactive) | 16.7 µM (inactive) | > 25 µM (inactive) |  | 9.79 µM (inactive) | > 25 µM (inactive) | 20.6 µM (inactive) | > 25 µM (inactive)
N#Cc1c(NC(=S)NC(=O)c2ccccc2)nc2c(c1-c1ccccc1)CCCC2 |  | > 100 µM (inactive) |  | > 100 |  | > 100 µM (inactive) | > 100 µM (inactive) |  | > 100 µM (inactive) | > 100 µM (inactive) | 17.8 µM (inactive) |  | 78.7 µM (inactive) |  | 73.6 µM (inactive) | 31.4 µM (inactive) | 17.1 µM (inactive) | > 100 µM (inactive) | > 100 µM (inactive) | > 100 µM (inactive)
CSc1nc(NC2OC(COC(C)=O)C(OC(C)=O)C(OC(C)=O)C2OC(C)=O)c2c(OC(C)=O)c(C)c(=O)oc2n1 (stereo unspecified) | > 100 µM (inactive) | > 100 µM (inactive) | > 100 µM (inactive) | > 100 | > 100 µM (inactive) | > 100 µM (inactive) | > 100 µM (inactive) | > 100 µM (inactive) | > 100 µM (inactive) | > 100 µM (inactive) | > 100 µM (inactive) | > 100 µM (inactive) |  | > 100 µM (inactive) | > 100 µM (inactive) | > 100 µM (inactive) | > 100 µM (inactive) | > 100 µM (inactive) | > 100 µM (inactive) | > 100 µM (inactive)
CSCCC(NC(=O)OCc1ccccc1)P(=O)(O)c1ccccc1 (stereo unspecified) |  | > 100 µM (inactive) | > 100 µM (inactive) | > 100 | > 100 µM (inactive) | > 100 µM (inactive) | > 100 µM (inactive) | > 100 µM (inactive) | > 100 µM (inactive) | > 100 µM (inactive) |  |  | > 100 µM (inactive) | > 100 µM (inactive) | > 100 µM (inactive) | > 100 µM (inactive) | > 100 µM (inactive) | > 100 µM (inactive) | > 100 µM (inactive) | > 100 µM (inactive)
c1ccc2c(c1)NCc1cc3ccccc3nc1O2 | > 75.5 µM (inactive) | > 68.5 µM (inactive) | > 100 µM (inactive) | > 100 | > 100 µM (inactive) | > 100 µM (inactive) | 97.1 µM (inactive) | > 40.7 µM (inactive) | > 100 µM (inactive) | > 100 µM (inactive) | > 100 µM (inactive) | > 100 µM (inactive) | > 100 µM (inactive) | > 100 µM (inactive) | > 100 µM (inactive) | > 100 µM (inactive) | > 84.5 µM (inactive) | > 100 µM (inactive) |  | > 100 µM (inactive)
